Like-named read-outs stand apart in the source and are kept apart here. Marks after values point to notes of the source that are not given here.
How the values were obtained:
[1] = target: T1, human carbonic anhydrase isoenzyme I from erythrocytes (Homo sapiens, UniProt P00915); assay: In vitro inhibition of human carbonic anhydrase isoenzyme I (dansylamide fluorescence); type: biochemical
T1 construct: human carbonic anhydrase isoenzyme I from erythrocytes (Sigma-Aldrich); purchased Sigma-Aldrich; host or cells: human erythrocytes
T1 sequence (P00915 whole entry): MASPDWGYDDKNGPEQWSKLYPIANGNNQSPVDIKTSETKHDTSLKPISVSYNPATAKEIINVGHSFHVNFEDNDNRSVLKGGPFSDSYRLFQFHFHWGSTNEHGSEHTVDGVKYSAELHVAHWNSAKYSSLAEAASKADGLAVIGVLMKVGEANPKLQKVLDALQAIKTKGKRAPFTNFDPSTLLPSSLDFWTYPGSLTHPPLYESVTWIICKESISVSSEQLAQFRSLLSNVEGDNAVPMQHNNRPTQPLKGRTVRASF
Description: (§1) The test compounds of general Formula I in 96 well microplates were diluted with aqua bidest by using an automatic pipettor (CyBiWell®). From the different dilution plates, aliquots of 20 μl were transferred to the 96 well black assay plates with a pipetting station (Tecan Genesis®). In a second step, 148 μl of potassium phosphate buffer (20 mM, pH 7.4) was added, and as a third step, 20 μl of enzyme solution (1 μM human carbonic anhydrase isoenzyme I from erythrocytes (Sigma-Aldrich) or human carbonic anhydrase II from erythrocytes (Sigma Aldrich), or recombinant human carbonic anhydrase isoenzyme VB (R&D Systems), dissolved in potassium phosphate buffer) incubated for 60 min at room temperature and the fluorescence signal (Tecan Ultra® fluorescence reader; excitation wavelength: 280 nm; emission wavelength: 465 nm) read at the end of the preincubation period (FLU-1). After the preincubation time, 20 μl of aqueous dansylamide solution (1 mM dansylamide (Sigma-Aldrich), dissolved in hydrochloric acid) were added and the fluorescence signal read every 10 min for a period of 60 min at 37° C. For calculation, the fluorescence data of the time point 60 min (FLU-2) were used. The total volume of assay mixture amounted to 208 μl. […] Each microplate also contained blanks without compound and enzyme, controls without compound and ethoxzolamide (final concentration 5×10^-[…]) as validation standard compound. All data reflect single measurements. Data were expressed as % inhibition after calculation by the formula: [formula] […] Concentration action figures were calculated by applying the Prism algorithm for nonlinear regression (curve-fit): sigmoidal dose response with variable slope and the constraints: top: 100 and bottom 0.

[2] = target: T2, human carbonic anhydrase II from erythrocytes (Homo sapiens, UniProt P00918); assay: In vitro inhibition of human carbonic anhydrase II (dansylamide fluorescence); type: biochemical
T2 construct: human carbonic anhydrase II from erythrocytes (Sigma Aldrich); purchased Sigma Aldrich; host or cells: human erythrocytes
Description: as §1

[3] = target: T3, recombinant human carbonic anhydrase isoenzyme VB (Homo sapiens, UniProt Q9Y2D0); assay: In vitro inhibition of human carbonic anhydrase isoenzyme VB (dansylamide fluorescence); type: biochemical; settings: final compound concentration 10 μM
T3 construct: purchased R&D Systems
T3 sequence (Q9Y2D0 34-317): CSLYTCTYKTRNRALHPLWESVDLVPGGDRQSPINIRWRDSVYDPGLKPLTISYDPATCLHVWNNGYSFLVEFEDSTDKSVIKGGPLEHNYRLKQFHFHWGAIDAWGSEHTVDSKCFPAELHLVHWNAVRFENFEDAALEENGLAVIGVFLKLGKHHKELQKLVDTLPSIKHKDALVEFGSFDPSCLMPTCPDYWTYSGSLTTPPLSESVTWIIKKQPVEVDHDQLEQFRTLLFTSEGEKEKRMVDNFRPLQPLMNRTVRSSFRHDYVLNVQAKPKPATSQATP
Description: as §1

male C57BI/6 mice = assay: Acute in vivo food intake test in mice; settings: high caloric diet, 50 mg/kg/day oral gavage twice daily for 3 days, day 3
Description: The studies were carried out in male C57BI/6 mice (n=12 per group). The mice were kept on an inverted 12/12 h light/dark cycle (lights on 22:00). They were allowed food (high caloric diet) and water ad libitum. Food intake and water consumption was measured daily. The test compound of general Formula I was suspended in 1% methyl hydroxyethyl cellulose in water and 0.1% (v/v) of poloxamer 188 and administered by oral gavage at a dose of 50 mg/kg/day twice daily for 3 days. One half of the dose was administered at 8.00-10.00 h; the remaining half of the dose was administered between 14.00-15.00 h.

[4] = system: embyronal hippocampal neurons; assay: Effect on neurite outgrowth from hippocampal neurons; type: cell-based, rat; settings: for neurite mean length (% of control): 3 days exposure, two cultures normalized
Description: Neurite outgrowth is an important parameter to evaluate the neurotrophic potency of a compound. […] The hippocampal neurons from pregnant Wistar female rats were dissociated by trypsinization for 30 min at 37° C. (trypsin-EDTA, Gibco) in presence of DNAse I (Roche, Meylan). The reaction was stopped by addition of medium of Eagle modified by Dulbecco (DMEM; Gibco) with 10% of fetal bovine serum (Gibco). The suspension was triturated with a 10-ml pipette and using a 21G needle syringe and centrifuged at 350×g for 10 min at room temperature. The resulting pellet was re-suspended in culture medium containing Neurobasal medium (Gibco) with 2% of B27 supplement (Gibco) and 2 mM of glutamine (Gibco). Viable cells were counted in a Neubauer cytometer using the trypan blue exclusion test (Sigma) and seeded on the basis of 30 000 cells per Petri dish (Nunc) precoated with poly-L-lysine (Sigma). Cells were allowed to adhere 2 h and maintained in a humidified incubator at 37° C. in 5% CO2-95% air atmosphere.
After adhesion, vehicle and test compound at different concentrations (1 μM, 3 μM, 10 μM and 30 μM) were added to the medium. BDNF (50 ng/ml, 3.7 nM) was included as positive control for neurite growth. The test compound was tested in two independent cultures in parallel with control and BNDF cultures.
After the 3 days exposure of the neurons to the test compounds, cultures were washed in phosphate-buffered saline (PBS, Gibco) and fixed using 2.5% glutaraldehyde in PBS. Several pictures (˜80) of cells with neurites without any branching were taken per condition using a digital camera (Coolpix 995; Nikon) fixed on the microscope (Nikon, objective 40×). Neurites were outlined on computer screen using imaging software (Image-Pro Plus, France), which automatically calculates the length.

mouse = settings: for number of deaths after ECS: 20 mice per group, vehicle 1; for ECS intensity administered, mean ± s.e.m.: vehicle 36.5 ± 1.0
Description: The method, which detects pro-convulsant or anti-convulsant activity, follows that described by Swinyard et al. (J. Pharmacol. Exp. Ther. 1952, 106, 319-330). Mice were administered ECS (rectangular current, 0.4 s, 50 Hz) via corneal electrodes connected to a constant current shock generator (Ugo Basile: Type 7801).
A group wherein the vehicle is administered orally 60 minutes before the ECS serves a control. Diazepam (8 mg/kg p.o.), administered under the same experimental conditions, served as a positive anti-convulsive reference substance.
If there were also no convulsions in animal no 2, then the current was further increase in the following animals (increases of 10 mA) until the first tonic convulsion was observed. Once the first tonic convulsion was observed, the intensity of ECS was decreased by 5 mA for the next animal and then the intensity was decreased or increased by 5 mA from animal to animal depending on whether or the previous animal convulsed or not. The minimum intensity given was 25 mA and the maximum intensity given was 95 mA. The electroconvulsive shock threshold was determined as the mean current administered in the last 20 mice.
The number of deaths is also recorded approximately 30 minutes after the animal has been tested for convulsions. The test was performed blind. A positive percent change indicates an anticonvulsant effect. A negative percent change indicates a proconvulsant effect.
Quantitative data were analyzed by comparing treated groups with vehicle control using unpaired Student's t tests. Quantal data were analyzed by comparing treated groups with vehicle control using Fisher's Exact Probability tests.

[5] = system: STZ-diabetic male Sprague Dawley rats; assay: Diabetic-induced neuropathic pain: cold bath test (cold allodynia) in STZ rats; type: in vivo, rat; settings: day 10
[6] = system: STZ-diabetic male Sprague Dawley rats; assay: Diabetic-induced neuropathic pain: warm plate (38° C.) test (warm allodynia) in STZ rats; type: in vivo, rat; settings: day 10
[7] = system: embyronal hippocampal neurons; assay: Effect on neurite outgrowth from hippocampal neurons; type: cell-based, rat; settings: BDNF 1.85 nM (positive control), 3 days exposure
[8] = final compound concentration 0.1 μM
[9] = final compound concentration 1 μM

For `CC1(C)[C@H]2CC[C@H](COS(N)(=O)=O)[C@@H]1C2` [Compound 1, [(1S,2S,5S)-6,6-dimethylbicyclo[3.1.1]hept-2-yl]methyl-sulfamate], the inhibition at 0.1 µM [1, 8] was 85%, the inhibition at 0.1 µM [2, 8] was 56% and the inhibition at 10 µM [3] was 70%. The “food intake [% of control]” value (male C57BI/6 mice) was 69.4% (day 3) % of control, the “neurite mean length (% of control)” value ([4]; 1 μM) was 110.9 % of control and the “neurite mean length (% of control)” value ([4]; 3 μM) was 108.9 % of control. For the same molecule, the “neurite mean length (% of control)” value ([4]; 10 μM) was 113.2 % of control, the “neurite mean length (% of control)” value ([4]; 30 μM) was 114.5 % of control and the “number of deaths after ECS” value (mouse; 10 mg/kg p.o. −60 min) was 2. For the same molecule, the “ECS intensity administered, mean ± s.e.m.” value (shortened to “ECS intensity administered”) (mouse; 10 mg/kg p.o. −60 min) was 40.0 ± 1.2 mA, the “number of deaths after ECS” value (mouse; 30 mg/kg p.o. −60 min) was 0 and the “ECS intensity administered” value (mouse; 30 mg/kg p.o. −60 min) was 43.5 ± 1.5 mA. For the same molecule, the “number of deaths after ECS” value (mouse; 100 mg/kg p.o. −60 min) was 1, the “ECS intensity administered” value (mouse; 100 mg/kg p.o. −60 min) was 88.0 ± 2.1 mA and the “% inhibition (compared to STZ/vehicle group), cold bath test” value ([5]; 10 mg/kg p.o. 1 h before test) was 62* %. The “% inhibition (compared to STZ/vehicle group), cold bath test” value ([5]; 30 mg/kg p.o. 1 h before test) was 58* %, the “% inhibition (compared to STZ/vehicle group), cold bath test” value ([5]; 50 mg/kg p.o. 1 h before test) was 72* % and the “% inhibition (compared to STZ/vehicle group), warm plate test” value ([6]; 10 mg/kg p.o. 1 h before test) was 53%. The “% inhibition (compared to STZ/vehicle group), warm plate test” value ([6]; 30 mg/kg p.o. 1 h before test) was 59* % and the “% inhibition (compared to STZ/vehicle group), warm plate test” value ([6]; 50 mg/kg p.o. 1 h before test) was 64* %.

Work on `CC1(C)[C@@H]2CC[C@@H](COS(N)(=O)=O)[C@H]1C2` [Compound 2, [(1R,2R,5R)-6,6-dimethylbicyclo[3.1.1]hept-2-yl]methyl-sulfamate] yielded an inhibition at 0.1 µM [1, 8] of 70%, an inhibition at 0.1 µM [2, 8] of 33% and an inhibition at 10 µM [3] of 75%.

`CC1(C)[C@H]2CC[C@@H](CCOS(N)(=O)=O)[C@@H]1C2` [Compound 3, [(1S,2S,5S)-6,6-dimethylbicyclo[3.1.1]hept-2-yl]ethyl-sulfamate] was tested, and the “% Inhibition” value [1, 8] was 28%, the “% Inhibition” value [2, 8] was 15% and the “% Inhibition” value [3] was 55%.

In the case of `CC1(C)[C@H]2CC[C@@H](COS(N)(=O)=O)[C@@H]1C2` [Compound 4, [(1S,2R,5S)-6,6-dimethylbicyclo[3.1.1]hept-2-yl]methylsulfamate], the “% Inhibition” value [1, 9] is reported as 80%, the “% Inhibition” value [2, 9] is reported as 72% and the “% Inhibition” value [3] is reported as 53%.

In the case of `CN1C(=O)CN=C(c2ccccc2)c2cc(Cl)ccc21` [Diazepam, reference compound], the “ECS intensity % change from control” value (mouse; 8 mg/kg p.o. −60 min) is reported as “+124%”, the “number of deaths after ECS” value (mouse; 8 mg/kg p.o. −60 min) is reported as 0 and the “ECS intensity administered” value (mouse; 8 mg/kg p.o. −60 min) is reported as 81.8 ± 3.0 mA.

“(1R,4S)-bicyclo[2.2.1]hept-2-yl-methylsulfamate [Compound 5]” was tested, and the “% Inhibition” value [1, 9] was 91%, the “% Inhibition” value [2, 9] was 77% and the “% Inhibition” value [3] was 41%.

With “(4S)-bicyclo[2.2.1]hept-5-en-2-ylmethylsulfamate [Compound 6]” the “% Inhibition” value [1, 9] was 94%, the “% Inhibition” value [2, 9] was 76% and the “% Inhibition” value [3] was 40%.

B1: BDNF: BDNF (50 ng/ml, 3.7 nM) was included as positive control for neurite growth (protein, UniProt P23560 19-247, looked up)
Neurotrophic factor BDNF …: APMKEANIRGQGGLAYPGVRTHGTLESVNGPKAGSRGLTSLADTFEHVIEELLDEDQKVRPNEENNKDADLYTSRVMLSSQVPLEPPLLFLLEEYKNYLDAANMSMRVRRHSDPARRGELSVCDSISEWVTAADKKTAVDMSGGTVTVLEKVPVSKGQLKQYFYETKCNPMGYTKEGCRGIDKRHWNSQCRTTQSYVRALTMDSKKRIGWRFIRIDTSCVCTLTIKRGR
In the case of B1, the “increase in neurite length normalized by mean control neurite length” value ([4]; 50 ng/ml BDNF, both cultures normalized) is reported as 16.4%, the “mean increase in neurite length” value ([4]; 50 ng/ml BDNF, first culture) is reported as 24.5 μm and the “neurite length (mean±SEM)” value ([4]; 50 ng/ml BDNF, first culture, n=79 (control 105.7±3.2)) is reported as 131.6±3.1 μm. The “mean increase in neurite length” value ([4]; 50 ng/ml BDNF, second culture) was 8.6 μm, the “neurite length (mean±SEM)” value ([4]; 50 ng/ml BDNF, second culture, n=82 (control 109.3±3.1)) was 118.7±2.8 μm and the “neurite mean length (% of control)” value [7] was 116.4 % of control.

From patent US20090104126A1, “Sulfamate Compounds and Uses Thereof” (Solvay Pharmaceuticals GmbH, priority 2007, published 2009)
